Reference: ChEMBL document CHEMBL4842385, “Indirubin Derivatives as Dual Inhibitors Targeting Cyclin-Dependent Kinase and Histone Deacetylase for Treating Cancer” (J Med Chem, 2021)
Active and inactive are the calls of the source. No cut-off for these calls is given here.

Legend:
A549 [1] = assay: Potency index, ratio of SAHA IC50 to test compound IC50 for antiproliferative activity against human A549 cells assessed as cell growth inhibition measured after 48 hrs by CCK8 assay; assay type: functional
A549 [2] = assay: Antitumor activity against human A549 cells xenografted in BALB/c nude mouse assessed as tumor growth inhibition at 0.75 to 1.5 mg, IT (intratumoral) administered for 21 consecutive days relative to control; assay type: functional; conditions: dose 0.75-1.5 mg, time 21 day
A549 [3] = assay: Antitumor activity against human A549 cells xenografted in BALB/c nude mouse assessed as reduction in tumor weight at 0.75 to 1.5 mg, IT (intratumoral) administered for 21 consecutive days; assay type: functional, cell-based; conditions: dose 0.75-1.5 mg, time 21.0 day
[4] = molecular target: T1, Protein deacetylase HDAC6 (Homo sapiens) (UniProt Q9UBN7); assay: Inhibition of HDAC6 in human A549 cells assessed as increase in alpha tubulin acetylation at 10 uM incubated for 24 hrs followed by compound washout by DAPI staining based immunofluorescence assay; assay type: cell-based
T1 sequence (whole entry): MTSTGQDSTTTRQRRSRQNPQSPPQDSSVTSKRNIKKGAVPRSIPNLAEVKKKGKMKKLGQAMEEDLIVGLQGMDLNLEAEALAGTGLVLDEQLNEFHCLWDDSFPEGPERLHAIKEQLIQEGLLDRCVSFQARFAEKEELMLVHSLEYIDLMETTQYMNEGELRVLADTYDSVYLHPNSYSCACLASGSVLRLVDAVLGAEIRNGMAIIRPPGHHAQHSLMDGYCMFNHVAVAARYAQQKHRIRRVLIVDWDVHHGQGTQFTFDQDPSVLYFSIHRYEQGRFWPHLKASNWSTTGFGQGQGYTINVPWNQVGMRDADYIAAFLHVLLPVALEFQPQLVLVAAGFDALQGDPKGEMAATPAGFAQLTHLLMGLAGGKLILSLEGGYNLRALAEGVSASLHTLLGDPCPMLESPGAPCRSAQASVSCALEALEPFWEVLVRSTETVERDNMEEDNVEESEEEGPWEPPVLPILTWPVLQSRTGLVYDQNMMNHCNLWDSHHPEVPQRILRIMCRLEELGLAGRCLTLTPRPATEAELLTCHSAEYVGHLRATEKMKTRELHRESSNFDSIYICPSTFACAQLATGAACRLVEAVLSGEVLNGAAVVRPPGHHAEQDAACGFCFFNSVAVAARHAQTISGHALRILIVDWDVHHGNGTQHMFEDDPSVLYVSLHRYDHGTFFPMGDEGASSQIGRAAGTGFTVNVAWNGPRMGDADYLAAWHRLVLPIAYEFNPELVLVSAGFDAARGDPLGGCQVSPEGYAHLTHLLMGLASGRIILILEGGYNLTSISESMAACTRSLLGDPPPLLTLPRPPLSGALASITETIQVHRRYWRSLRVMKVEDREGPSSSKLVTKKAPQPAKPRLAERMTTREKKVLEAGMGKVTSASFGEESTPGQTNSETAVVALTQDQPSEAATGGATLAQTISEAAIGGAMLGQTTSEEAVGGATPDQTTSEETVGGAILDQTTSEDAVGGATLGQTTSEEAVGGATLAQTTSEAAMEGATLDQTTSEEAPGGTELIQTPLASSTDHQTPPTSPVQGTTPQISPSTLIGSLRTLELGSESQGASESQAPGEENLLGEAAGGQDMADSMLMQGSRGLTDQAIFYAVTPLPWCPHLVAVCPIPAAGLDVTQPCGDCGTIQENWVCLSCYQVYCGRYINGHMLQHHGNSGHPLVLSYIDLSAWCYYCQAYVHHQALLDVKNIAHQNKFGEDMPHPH

A549 [5] = assay: Induction of apoptosis in human A549 cells measured after 48 hrs by Annexin-V/FITC-propidium iodide staining based flow cytometry analysis; assay type: functional, cell-based; conditions: dose 2.5-10 µM
A549 [6] = assay: Induction of apoptosis in human A549 cells assessed as downregulation of Mcl-1 protein measured after 48 hrs by Western blot analysis; assay type: functional, cell-based; conditions: dose 1-10 µM
MCF7 = assay: Cycle arrest in human MCF7 cells assessed as increase in cell population at S phase measured after 24 hrs by propidium iodide/RNase staining based flow cytometry; assay type: functional; conditions: dose 2.5-10 µM
[7] = molecular target: Cyclin-dependent kinase 2/4/6 (Homo sapiens) (UniProt P11802+P24941+Q00534); assay: Inhibition of CDK2/4/6 in human A549 cells assessed as decrease in Rb phosphorylation measured after 48 hrs by Western blot analysis; assay type: cell-based; conditions: dose 1-10 µM
[8] = molecular target: T1, Protein deacetylase HDAC6 (Homo sapiens); assay: Inhibition of HDAC6 in human K562 cells assessed as accumulation of acetylation of H3 at 1 to 10 uM measured after 48 hrs by Western blot analysis; assay type: cell-based; conditions: dose 1-10 µM
A549 [9] = assay: Cycle arrest in human A549 cells assessed as increase in cell population at S phase measured after 24 hrs by propidium iodide/RNase staining based flow cytometry; assay type: functional; conditions: dose 2.5-10 µM
A549 [10] = assay: Antitumor activity against human A549 cells xenografted in BALB/c nude mouse assessed as tumor growth inhibition at 25 mg/kg, iv administered for 21 consecutive days relative to control; assay type: functional; conditions: 504 h, time 21 day, read-out: TGI
[11] = Toxicity in iv dosed BALB/c nude mouse assessed as maximum tolerated dose administered once daily for 5 consecutive days; assay type: organism-based; conditions: in vivo, time 5 day
[12] = molecular target: T1, Protein deacetylase HDAC6 (Homo sapiens); assay: Inhibition of HDAC6 in human A549 cells assessed as accumulation of acetylation of H3 at 1 to 10 uM measured after 48 hrs by Western blot analysis; assay type: cell-based; conditions: dose 1-10 µM
A549 [13] = assay: Induction of apoptosis in human A549 cells assessed as increase in sum of early and late apoptotic cells at 2.5 to 10 uM measured after 48 hrs by Annexin-V/FITC-propidium iodide staining based flow cytometry analysis; assay type: functional, cell-based; conditions: dose 2.5-10 µM
K562 [14] = assay: Cycle arrest in human K562 cells assessed as increase in cell population at S phase measured after 24 hrs by propidium iodide/RNase staining based flow cytometry; assay type: functional; conditions: dose 2.5-10 µM
[15] = molecular target: T1, Protein deacetylase HDAC6 (Homo sapiens); assay: Inhibition of HDAC6 in human MCF7 cells assessed as accumulation of acetylation of H4 at 1 to 10 uM measured after 48 hrs by Western blot analysis; assay type: cell-based; conditions: dose 1-10 µM
K562 [16] = assay: Induction of apoptosis in human K562 cells measured after 48 hrs by Annexin-V/FITC-propidium iodide staining based flow cytometry analysis; assay type: functional, cell-based; conditions: dose 2.5-10 µM
[17] = molecular target: T1, Protein deacetylase HDAC6 (Homo sapiens); assay: Inhibition of HDAC6 in human K562 cells assessed as accumulation of acetylation of […] at 1 to 10 uM measured after 48 hrs by Western blot analysis; assay type: cell-based; conditions: dose 1-10 µM
[18] = molecular target: T1, Protein deacetylase HDAC6 (Homo sapiens); assay: Inhibition of HDAC6 in human MCF7 cells assessed as increase in alpha tubulin acetylation measured after 48 hrs by Western blot analysis; assay type: cell-based; conditions: dose 1-10 µM
[19] = Toxicity in BALB/c nude mouse xenografted with human A549 cells assessed as body weight loss at 0.75 to 1.5 mg, IT(intratumoral) administered for 21 consecutive days; conditions: in vivo, other, 504 h, dose 0.75-1.5 mg, time 21 day
A549 [20] = assay: Induction of apoptosis in human A549 cells assessed as downregulation of […] protein measured after 48 hrs by Western blot analysis; assay type: functional, cell-based; conditions: dose 1-10 µM
[21] = Bioavailability in Sprague-Dawley rat at 50 mg/kg, ip measured up to 24 hrs by LC-MS analysis; assay type: ADME, organism-based; conditions: in vivo

In the case of `O=C(CCCO/N=C1/C(=C2/C(=O)Nc3ccccc32)Nc2ccccc21)NO`, the “Ratio IC50” value (A549 [1]) is reported as 3, the TGI (A549 [2]) is reported as 67.1% and the Activity (A549 [3]) is reported as “Active”. For the same compound, the inhibition [4] was “Active”, the Activity (A549 [5]) was “Dose-Dependent Effect” and the Activity (A549 [6]) was “Dose-Dependent Effect”. The Activity (MCF7) was “Dose-Dependent Effect”, the inhibition [7] was “Dose-Dependent Effect” and the inhibition [8] was “inactive”. For the same compound, the Activity (A549 [9]) was “Dose-Dependent Effect”, the inhibition in vivo at 25 mg/kg (A549 [10]) was 43.2% and the MTD at 120 h [11] was no more than 200 mg/kg. For the same compound, the inhibition [12] was “inactive”, the Activity (A549 [13]) was “Active” and the Activity (K562 [14]) was “Dose-Dependent Effect”. The inhibition [15] was “inactive”, the Activity (K562 [16]) was “Dose-Dependent Effect” and the inhibition [17] was “inactive”. The inhibition [18] was “Dose-Dependent Effect”, the Activity [19] was “Non-Toxic” and the Activity (A549 [20]) was “Dose-Dependent Effect”. The bioavailability [21] was 13%.
